Measurements published in ChEMBL document CHEMBL1201861, “Genomics of Drug Sensitity in Cancer screening data, Wellcome Trust Sanger Institute”.

Experiments:
Experiment in all cases: cells
Format in all cases: functional, cell-based, Homo sapiens
NCI-H661 = conditions: Homo sapiens, NCI-H661;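 note: cell viability assay read-out, IC50 being the concentration that inhibits growth of the cells by half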
Description: SANGER: Inhibition of human NCI-H661 cell growth in a cell viability assay.

P12-Ichikawa = conditions: Homo sapiens, P12-Ichikawa
CAMA-1 = conditions: Homo sapiens, CAMA-1;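 note: growth inhibition of CAMA-1 cells, read out with a cell viability assay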
Description: SANGER: Inhibition of human CAMA-1 cell growth in a cell viability assay.

MDA-MB-231 = conditions: Homo sapiens, MDA-MB-231
Description: SANGER: Inhibition of human MDA-MB-231 cell growth in a cell viability assay.

COLO-792 = conditions: Homo sapiens, COLO-792
Description: SANGER: Inhibition of human COLO-792 cell growth in a cell viability assay.

NCI-H1755 = conditions: Homo sapiens, NCI-H1755;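 note: cell viability readout used to measure growth inhibition of NCI-H1755 cells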
Description: SANGER: Inhibition of human NCI-H1755 cell growth in a cell viability assay.

LCLC-97TM1 = conditions: Homo sapiens, LCLC-97TM1;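 note: cell viability assay measuring growth inhibition of human LCLC-97TM1 cells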
Description: SANGER: Inhibition of human LCLC-97TM1 cell growth in a cell viability assay.

MDA-MB-453 = conditions: Homo sapiens, MDA-MB-453
Description: SANGER: Inhibition of human MDA-MB-453 cell growth in a cell viability assay.

SCC-4 = conditions: Homo sapiens, SCC-4;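 note: growth inhibition of human SCC-4 cells, read out as cell viability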
Description: SANGER: Inhibition of human SCC-4 cell growth in a cell viability assay.

NCI-H2291 = conditions: Homo sapiens, NCI-H2291
Description: SANGER: Inhibition of human NCI-H2291 cell growth in a cell viability assay.

KYSE-450 = conditions: Homo sapiens, KYSE-450;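 note: cell growth inhibition measured by a viability assay in human KYSE-450 cells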
Description: SANGER: Inhibition of human KYSE-450 cell growth in a cell viability assay.

COLO-680N = conditions: Homo sapiens, COLO-680N;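 note: cell viability assay used to measure inhibition of COLO-680N cell growth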
Description: SANGER: Inhibition of human COLO-680N cell growth in a cell viability assay.

HCC38 = conditions: Homo sapiens, HCC38;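 note: cell viability assay on the human HCC38 cell line, with IC50 marking the concentration that inhibits cell growth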
Description: SANGER: Inhibition of human HCC38 cell growth in a cell viability assay.

DU-145 = conditions: Homo sapiens, DU-145
Description: SANGER: Inhibition of human DU-145 cell growth in a cell viability assay.

CAL-27 = conditions: Homo sapiens, CAL-27;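 note: Viability-based readout, IC50 reflecting inhibition of CAL-27 cell growth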
Description: SANGER: Inhibition of human CAL-27 cell growth in a cell viability assay.

MFE-280 = conditions: Homo sapiens, MFE-280;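 note: growth inhibition of MFE-280 cells, determined with a cell viability readout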
Description: SANGER: Inhibition of human MFE-280 cell growth in a cell viability assay.

HCC70 = conditions: Homo sapiens, HCC70;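 note: cell viability assay measuring how strongly the compound suppresses proliferation of HCC70 cells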
Description: SANGER: Inhibition of human HCC70 cell growth in a cell viability assay.

DoTc2-4510 = conditions: Homo sapiens, DoTc2-4510
FaDu = conditions: Homo sapiens, FaDu;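 note: cell viability readout of growth inhibition in FaDu cells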
Description: SANGER: Inhibition of human FADU cell growth in a cell viability assay.

OVCAR-3 = conditions: Homo sapiens, OVCAR-3;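 note: growth inhibition of human OVCAR-3 cells, determined by a cell viability assay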
Description: SANGER: Inhibition of human OVCAR-3 cell growth in a cell viability assay.

DK-MG = conditions: Homo sapiens, DK-MG;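 note: growth inhibition of DK-MG cells, read out with a cell viability assay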
Description: SANGER: Inhibition of human DK-MG cell growth in a cell viability assay.

RO82-W-1 = conditions: Homo sapiens, RO82-W-1;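 note: growth inhibition of human RO82-W-1 cells, measured with a cell viability assay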
Description: SANGER: Inhibition of human RO82-W-1 cell growth in a cell viability assay.

G-402 = conditions: Homo sapiens, G-402
Description: SANGER: Inhibition of human G-402 cell growth in a cell viability assay.

NCI-H2170 = conditions: Homo sapiens, NCI-H2170;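 note: cell viability assay measuring growth inhibition of human NCI-H2170 cancer cells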
Description: SANGER: Inhibition of human NCI-H2170 cell growth in a cell viability assay.

A-431 = conditions: Homo sapiens, A-431;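 note: growth inhibition of A-431 cells, determined with a cell viability read-out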
Description: SANGER: Inhibition of human A431 cell growth in a cell viability assay.

NCI-H596 = conditions: Homo sapiens, NCI-H596;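 note: growth inhibition of NCI-H596 cells, read out with a cell viability assay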
Description: SANGER: Inhibition of human NCI-H596 cell growth in a cell viability assay.

NCI-H520 = conditions: Homo sapiens, NCI-H520;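 note: growth inhibition of NCI-H520 cells, measured by a cell viability assay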
Description: SANGER: Inhibition of human NCI-H520 cell growth in a cell viability assay.

DMS-273 = conditions: Homo sapiens, DMS-273
Description: SANGER: Inhibition of human DMS-273 cell growth in a cell viability assay.

HOS = conditions: Homo sapiens, HOS;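 note: growth inhibition of human HOS cells, read out with a cell viability assay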
Description: SANGER: Inhibition of human HOS cell growth in a cell viability assay.

EFO-27 = conditions: Homo sapiens, EFO-27;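 note: growth inhibition of EFO-27 cells, read out with a cell viability assay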
Description: SANGER: Inhibition of human EFO-27 cell growth in a cell viability assay.

MDA-MB-415 = conditions: Homo sapiens, MDA-MB-415
HEC-1 = conditions: Homo sapiens, HEC-1;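 note: growth inhibition of the cell line, read out with a cell viability assay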
Description: SANGER: Inhibition of human HEC-1 cell growth in a cell viability assay.

CHL-1 = conditions: Homo sapiens, CHL-1;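 note: cell growth inhibition, read out with a cell viability assay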
Description: SANGER: Inhibition of human CHL-1 cell growth in a cell viability assay.

YAPC = conditions: Homo sapiens, YAPC;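 note: growth inhibition of YAPC cells, measured with a cell viability assay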
Description: SANGER: Inhibition of human YAPC cell growth in a cell viability assay.

NCI-H358 = conditions: Homo sapiens, NCI-H358;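 note: growth inhibition of NCI-H358 human cells, read out with a cell viability assay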
Description: SANGER: Inhibition of human NCI-H358 cell growth in a cell viability assay.

G-361 = conditions: Homo sapiens, G-361
Kasumi 1 = conditions: Homo sapiens, Kasumi 1;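 note: growth inhibition of human Kasumi-1 cells, read out by a cell viability assay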
Description: SANGER: Inhibition of human KASUMI-1 cell growth in a cell viability assay.

SMILES | IC50 (NCI-H661) | IC50 (CAMA-1) | IC50 (COLO-792) | IC50 (NCI-H1755) | IC50 (LCLC-97TM1) | IC50 (MDA-MB-453) | IC50 (SCC-4) | IC50 (NCI-H2291) | IC50 (KYSE-450) | IC50 (DU-145) | IC50 (CAL-27) | IC50 (HCC70) | IC50 (DoTc2-4510) | IC50 (FaDu) | IC50 (OVCAR-3) | IC50 (RO82-W-1) | IC50 (G-402) | IC50 (A-431) | IC50 (DMS-273) | IC50 (HOS) | further results
Cn1cnc2c(F)c(Nc3ccc(Br)cc3Cl)c(C(=O)NOCCO)cc21 [SELUMETINIB] | > 4 µM | > 4 µM | 1.19 µM | > 4 µM | 1.03 µM | > 4 µM | > 4 µM | 0.762 µM | > 4 µM | > 4 µM | 3.06 µM | > 4 µM | > 4 µM | > 4 µM | > 4 µM | > 4 µM | > 4 µM | > 4 µM | > 4 µM | > 4 µM | IC50 (P12-Ichikawa): 1.16 µM; IC50 (MDA-MB-231): > 4 µM; IC50 (COLO-680N): > 4 µM; IC50 (HCC38): > 4 µM; IC50 (MFE-280): > 4 µM; IC50 (DK-MG): > 4 µM; IC50 (NCI-H2170): > 4 µM; IC50 (NCI-H596): > 4 µM; IC50 (NCI-H520): > 4 µM; IC50 (EFO-27): 3.33 µM; IC50 (MDA-MB-415): > 4 µM; IC50 (HEC-1): > 4 µM; IC50 (CHL-1): > 4 µM; IC50 (YAPC): > 4 µM
CC(C)CCN1c2nc(Nc3cc(F)c(O)c(F)c3)ncc2N(C)C(=O)C1C (configuration not stated) | > 5 µM | > 5 µM | > 5 µM | > 5 µM | 2.6 µM | > 5 µM | 3.09 µM | > 5 µM | > 5 µM | 2.11 µM | > 5 µM | > 5 µM | > 5 µM | > 5 µM | > 5 µM | > 5 µM | > 5 µM | 4.14 µM | > 5 µM | 4.46 µM | IC50 (P12-Ichikawa): 2.53 µM; IC50 (MDA-MB-231): 4.72 µM; IC50 (COLO-680N): > 5 µM; IC50 (HCC38): > 5 µM; IC50 (MFE-280): > 5 µM; IC50 (DK-MG): > 5 µM; IC50 (NCI-H2170): > 5 µM; IC50 (NCI-H596): > 5 µM; IC50 (NCI-H520): > 5 µM; IC50 (NCI-H358): > 5 µM; IC50 (EFO-27): > 5 µM; IC50 (MDA-MB-415): > 5 µM; IC50 (G-361): 2.12 µM; IC50 (HEC-1): > 5 µM; IC50 (CHL-1): 1.96 µM; IC50 (YAPC): > 5 µM
CCN(CC)CCCCNc1ncc2cc(-c3cc(OC)cc(OC)c3)c(NC(=O)NC(C)(C)C)nc2n1 [PD-173074] | > 2 µM | > 2 µM | > 2 µM | > 2 µM | > 2 µM | > 2 µM | > 2 µM | > 2 µM | > 2 µM | 1.58 µM | > 2 µM | > 2 µM | > 2 µM | > 2 µM | > 2 µM | > 2 µM | > 2 µM | > 2 µM | > 2 µM | > 2 µM | IC50 (P12-Ichikawa): > 2 µM; IC50 (MDA-MB-231): > 2 µM; IC50 (COLO-680N): > 2 µM; IC50 (HCC38): > 2 µM; IC50 (MFE-280): 0.859 µM; IC50 (DK-MG): > 2 µM; IC50 (NCI-H2170): > 2 µM; IC50 (NCI-H596): > 2 µM; IC50 (NCI-H520): > 2 µM; IC50 (NCI-H358): > 2 µM; IC50 (EFO-27): > 2 µM; IC50 (MDA-MB-415): > 2 µM; IC50 (HEC-1): > 2 µM; IC50 (CHL-1): > 2 µM; IC50 (YAPC): > 2 µM
COc1cc2c(Nc3ccc(NC(=O)c4ccccc4)cc3)ncnc2cc1OCCCN1CCOCC1 | 2.99 µM | > 4 µM | > 4 µM | > 4 µM | 2.18 µM | > 4 µM | > 4 µM | > 4 µM | > 4 µM | > 4 µM | > 4 µM | > 4 µM | > 4 µM | > 4 µM | > 4 µM | > 4 µM | > 4 µM | > 4 µM | > 4 µM | > 4 µM | IC50 (P12-Ichikawa): 0.224 µM; IC50 (MDA-MB-231): > 4 µM; IC50 (COLO-680N): > 4 µM; IC50 (HCC38): > 4 µM; IC50 (MFE-280): 3.41 µM; IC50 (DK-MG): > 4 µM; IC50 (NCI-H2170): > 4 µM; IC50 (NCI-H596): > 4 µM; IC50 (NCI-H520): > 4 µM; IC50 (NCI-H358): > 4 µM; IC50 (EFO-27): > 4 µM; IC50 (MDA-MB-415): > 4 µM; IC50 (HEC-1): > 4 µM; IC50 (CHL-1): 3.42 µM; IC50 (YAPC): > 4 µM
CS(=O)(=O)c1ccc(C(=O)Nc2ccc(Cl)c(-c3ccccn3)c2)c(Cl)c1 [VISMODEGIB] | > 10 µM | > 10 µM | > 10 µM | > 10 µM | > 10 µM | > 10 µM | > 10 µM | > 10 µM | > 10 µM | > 10 µM | > 10 µM | > 10 µM | > 10 µM | > 10 µM | > 10 µM | > 10 µM | > 10 µM | > 10 µM | > 10 µM | > 10 µM | IC50 (P12-Ichikawa): > 10 µM; IC50 (MDA-MB-231): > 10 µM; IC50 (COLO-680N): > 10 µM; IC50 (HCC38): > 10 µM; IC50 (MFE-280): > 10 µM; IC50 (DK-MG): > 10 µM; IC50 (NCI-H2170): > 10 µM; IC50 (NCI-H596): > 10 µM; IC50 (NCI-H520): > 10 µM; IC50 (NCI-H358): > 10 µM; IC50 (EFO-27): > 10 µM; IC50 (MDA-MB-415): > 10 µM; IC50 (G-361): > 10 µM; IC50 (HEC-1): > 10 µM; IC50 (CHL-1): > 10 µM; IC50 (YAPC): > 10 µM
CN(C)C(=N)NC(=N)N [METFORMIN] | 4560 µM | 11000 µM | 7510 µM | > 20000 µM | 3170 µM | 12900 µM | > 20000 µM | > 20000 µM | > 20000 µM | 838 µM | > 20000 µM | > 20000 µM | > 20000 µM | 11200 µM | 17600 µM | > 20000 µM | 11300 µM | > 20000 µM | 13600 µM | > 20000 µM | IC50 (P12-Ichikawa): 12400 µM; IC50 (Kasumi 1): 378 µM; IC50 (EFO-27): > 20000 µM; IC50 (MDA-MB-415): 16800 µM; IC50 (HEC-1): 16200 µM; IC50 (CHL-1): 19500 µM; IC50 (YAPC): > 20000 µM
CC1(C)CNc2cc(NC(=O)c3cccnc3NCc3ccncc3)ccc21 [MOTESANIB] | > 2 µM | > 2 µM | > 2 µM | > 2 µM | > 2 µM | > 2 µM | > 2 µM | > 2 µM | > 2 µM | 0.469 µM | > 2 µM | > 2 µM | > 2 µM | > 2 µM | > 2 µM | > 2 µM | 1.02 µM | > 2 µM | > 2 µM | > 2 µM | IC50 (P12-Ichikawa): > 2 µM; IC50 (MDA-MB-231): > 2 µM; IC50 (COLO-680N): > 2 µM; IC50 (HCC38): > 2 µM; IC50 (MFE-280): > 2 µM; IC50 (DK-MG): > 2 µM; IC50 (NCI-H2170): > 2 µM; IC50 (NCI-H596): > 2 µM; IC50 (NCI-H520): > 2 µM; IC50 (NCI-H358): > 2 µM; IC50 (EFO-27): > 2 µM; IC50 (MDA-MB-415): > 2 µM; IC50 (HEC-1): > 2 µM; IC50 (CHL-1): > 2 µM; IC50 (YAPC): > 2 µM
CC(C)c1ccccc1Cc1cc(C(=O)Nc2ccc(S(=O)(=O)c3ccccc3C(C)(C)C)cc2)c(O)c(O)c1O | 0.202 µM | 0.661 µM | 0.247 µM | 1.62 µM | 0.917 µM | 0.152 µM | 1.3 µM | 21 µM | 0.175 µM | 0.0521 µM | 0.136 µM | 0.858 µM | 1.48 µM | 0.526 µM | 0.379 µM | 0.398 µM | 0.193 µM | 1.47 µM | 0.1 µM | 0.0847 µM | IC50 (MDA-MB-231): 0.108 µM; IC50 (COLO-680N): 1.43 µM; IC50 (HCC38): 0.676 µM; IC50 (MFE-280): 4.59 µM; IC50 (DK-MG): 2.9 µM; IC50 (NCI-H2170): 1 µM; IC50 (NCI-H596): 3.32 µM; IC50 (NCI-H520): 0.606 µM; IC50 (NCI-H358): 1.49 µM; IC50 (EFO-27): 0.117 µM; IC50 (G-361): 0.125 µM; IC50 (HEC-1): 0.0814 µM; IC50 (CHL-1): 0.0119 µM; IC50 (YAPC): 0.801 µM
